Entries after “also recorded” stand apart in the source; their conditions may differ.
How the values were obtained:
400 m running experiment = format: in vivo, human
Description: Two healthy male volunteers S1 and S3 from Example 2.1 participated in 400 m running experiment with 4 day administration of DGAcs and without it. The experiments were done at 2-3 pm in the afternoon. In DGA experiment additional dose of DGAcs (5 mg/kg) was taken before lunch at 11 am, and lunch was eaten at 12 am. […] The length of the 400 m exercise at full speed was too much especially for S1. […] This difference was striking especially for S3 and can be as a result in decreased acidosis.

[1] = 3 week ad libitum feeding study, food intake and body weight; format: in vivo, rat
Description: In this in vivo experiment 45 rats (24 males and 21 females) were tested in Finnish National Institute of Health. Used DGAcs doses were high compared to human trials ranging between 100-1000 mg/kg/day, but on the other hand the metabolism of rats is much faster than in humans and thus the effective doses for rats can be clearly higher than for humans. In some experiments even 20-50 times higher compared to humans in vivo have been reported in literature. Thus this experiment can give indication also for human use. The animals were kept under controlled conditions, with the temperature set from 20° C. to 21° C., the humidity at 47.6%, and a 12-hour light-dark cycle (lights on at 6:00 am). In this ad libitum feeding study the DGAcs was mixed in the diet for the whole experimental period (3 weeks). The animals were divided into 4 groups, which received 0 (zero control), 2, 10, and 20 g glycerate per kilogram of diet. The average DGAcs consumption was 0.1, 0.5, and 1.0 g/kg per day, respectively, as calculated based on weekly food consumption. The animals experimented were 3 to 5 months old AA rats. The animals were given water and a standard laboratory feed (SDS RM1) ad libitum for 3 weeks. In the experiment the development of weights of rats receiving DGAcs, and the control were measured, as well as the food consumption during the experiment and change in the body weight. Males and females were separated resulting altogether to 8 groups with 5-6 animals in each.

[2] = Glucose tolerance test, plasma glucose and insulin; format: in vivo, human; conditions: 4.5 day experiment
Description: In the 4.5 day experiment also standard, fasting glucose tolerance test was conducted for S1 and S9 starting after 2.5 hours of last administration of DGAcs. Blood glucose levels were measured at 0 h, 60 min and 120 minutes.

rat cortical neurons = assay: LDH viability/cytotoxicity of rat cortical neurons (calorie restriction, high doses); format: cell-based
Description: Cell culture. Cortical neurons were dissected from P1 rats and cultured in 96-well plates up to 7 days in the medium containing: neurobasal medium, 1.5% B27 supplement, 1 mM L-glutamine, penicillin/streptomycin.
Treatment of cells with DGAcs was done in two different ways. In all studies the total cultivation time was 7 days (7th day in vitro=7 DIV). In the first study a clear element of calorie restriction (CR) was built in to the standard model provided by the CRO. The other 24 hour pretreatment was without CR (more info in examples 2.1 and 2.2 below). Separately also exceptionally high doses of DGAcs were administered to neurons. […] (Effective dose was […]).
Cell Viability/Cytotoxicity. Cell Viability was Detected by LDH Tests Like in Examples 1.1-1.2.
Cell treatment: concentration of DGAcs (10, 50 and 100 μg/ml) was added into cell culture medium at 4 DIV. After 24 h (at 5 DIV) 25% of medium was changed to fresh containing 1.5× concentration of DGAcs. Same treatment (change 25% with 1.5× concentration) was repeated at 6 DIV. The cells were transferred into Mg^2+-free Locke's buffer containing the same concentrations of DGAcs immediately before imaging experiments (at 7 DIV). For controls the same amount of medium was changed without addition of DGAcs.
Cell treatment according to the protocol renewed only 25% of the medium during 5 DIV and 6 DIV, meaning that neurons received only very small amounts of new nutrition, i.e. experienced calorie restrictions (CR). […] This same phenomenon of increased cell death in CR was already seen with human hepatocytes in previous examples. Likely explanation is the same: DGAcs administration increases metabolic activity in neurons and/or their (aerobic) ATP production and consumption, which leads to enhanced cell cycle control and programmed cell death (apoptosis) in nutritional scarcity. […] Viability loss compared to zero control was highest and statistically significant in 10 μg/ml group but also all other groups experienced loss of viability.

[3] = Extended 8 week administration and 2 week control period for S4 (Example 2.2); format: in vivo, human; conditions: for AST/ALT / S-Bil / S-Uraat / fS-Fe / fS-Trigly: fasting blood
Description: For Subject 4 (S4) in Example 2.1, the 4 day test period was prolonged by 8 weeks with reduced, only once a day 5 mg/kg/day administration before going to bed. Additionally in order to have an understanding that the results in the 8 week test were due to the administration of the Innovation, an additional negative control measurement without DGAcs after 2 weeks and 2 days was made (+2 days due to alleviating doses see below). The idea was to see, if the beneficial effects seen in 4 day treatment prevailed in longer term (positive control).

human hepatocytes = assay: Gene expression from hepatocytes lysates; format: cell-based; conditions: N = 5
[4] = S4, +2 weeks follow up after stopping DGAcs (negative control), change from previous observation (+8 weeks)
[5] = S4, +2 weeks follow up after stopping DGAcs (negative control)
[6] = S4, +8 weeks 5 mg/kg once a day (positive control), change from previous observation (4 day)
[7] = S4, +8 weeks 5 mg/kg once a day (positive control)

Q: What does the source list for O=C(O)[C@H](O)CO [DGA, D-glyceric acid]?
A: readiness to resume other physical exercise after 400 m run (400 m running experiment; S1 and S3, qualitative): much more ready to resume other physical exercise; 400 m running times, control vs DGA (400 m running experiment; S3, 4 day administration + 5 mg/kg before lunch): no significant differences

Q: For O.O.O=C([O-])[C@H](O)CO.O=C([O-])[C@H](O)CO.[Ca+2] [DGAcs, D-glyceric acid, calcium salt dehydrate], which “increase in food intake” value ([1]; DGAcs groups, males and females) is on record?
A: 2.5-4%

Q: And the “average weight change compared to control” value ([1]; female rats, 3 weeks)?
A: +0.2%

Q: What about the “average weight increasing compared to control” value ([1]; female rats, 3 weeks) of the same compound?
A: 0.6 grams

Q: And the “food intake higher compared to the control” value ([1]; female rats, DGAcs groups combined, 3 weeks)?
A: 2.5%

Q: And the “food intake higher compared to the control” value ([1]; male rats, DGAcs groups combined (0.1, 0.5, 1.0 g/kg per day), 3 weeks)?
A: 3.7%

Q: What about the “amount of unexplained energy consumption” value ([1]; males) of the same compound?
A: roughly 5%

Q: What about the “drop of blood glucose at 120 min” value ([2]; S1 (starting level 5.0 mmol/L), 75 g glucose) of the same compound?
A: marginal

Q: And the “blood glucose lower at 120 min compared to the control” value ([2]; S9 (fasting blood glucose 6.0 mmol/L), 75 g glucose)?
A: ~0.6 mmol/L

Q: And the “blood insulin level at 60 minutes” value ([2]; S9, 75 g glucose)?
A: higher insulin level

Q: And the “neuronal viability (LDH) under calorie restriction vs zero control” value (rat cortical neurons; 10, 50 and 100 μg/ml from 4 DIV, only 25% of medium renewed at 5 and 6 DIV, FIG. 13)?
A: dose dependent viability loss; also recorded: confirmed statistically significantly

Q: What about the toxicity to neurons (rat cortical neurons; 40-200 times the effective treatment dose) of the same compound?
A: No toxicity was observed

Q: And the Effective dose (rat cortical neurons; rat cortical neurons)?
A: 10-50 μg/m

Q: What about the “S-Asat, change” value [3, 4] of the same compound?
A: 24.1%

Q: What about the “S-Bil, change” value [3, 4] of the same compound?
A: 41.7%

Q: And the “S-Uraat, change” value [3, 4]?
A: 19.4%

Q: What about the “S-alat, change” value [3, 4] of the same compound?
A: −35.1%

Q: And the “fS-Fe, change” value [3, 4]?
A: −3.2%

Q: And the “fS-Trigly, change” value [3, 4]?
A: −17.8%

Q: What about the AST/ALT [3, 5] of the same compound?
A: 1.44

Q: And the S-Bil [3, 5]?
A: 10.2

Q: And the S-Uraat [3, 5]?
A: 295

Q: What about the fS-Fe [3, 5] of the same compound?
A: 15.1

Q: What about the fS-Trigly [3, 5] of the same compound?
A: 1.11

Q: What about the “S-Asat, change” value [3, 6] of the same compound?
A: 31.8%

Q: And the “S-Bil, change” value [3, 6]?
A: −25.8%

Q: What about the “S-Uraat, change” value [3, 6] of the same compound?
A: 0.4%

Q: What about the “S-alat, change” value [3, 6] of the same compound?
A: 85.0%

Q: What about the “fS-Fe, change” value [3, 6] of the same compound?
A: −22.8%

Q: And the “fS-Trigly, change” value [3, 6]?
A: −22.0%

Q: What about the AST/ALT [3, 7] of the same compound?
A: 0.78

Q: What about the S-Bil [3, 7] of the same compound?
A: 7.2

Q: And the S-Uraat [3, 7]?
A: 247

Q: And the fS-Fe [3, 7]?
A: 15.6

Q: What about the fS-Trigly [3, 7] of the same compound?
A: 1.35

Q: What about the “time without dose until withdrawal symptoms started” value ([3]; S4, after 8 weeks of 5 mg/kg/day) of the same compound?
A: 36 h

Q: What about the “withdrawal symptoms after stopping administration” value ([3]; S4, after 8 weeks of 5 mg/kg/day, bad feeling inside the head, dizziness, uneasiness) of the same compound?
A: very clear but not severe

Q: And the “CYP2B6 gene expression deviation from control” value (human hepatocytes; donor alpha, 1.4 (μM))?
A: 38%

Q: What about the “PGC-1a gene expression deviation from control” value (human hepatocytes; donor alpha, 1.4 (μM)) of the same compound?
A: 5%

Q: What about the “CYP2B6 gene expression deviation from control” value (human hepatocytes; donor alpha, 14 (μM)) of the same compound?
A: 45%

Q: And the “PGC-1a gene expression deviation from control” value (human hepatocytes; donor alpha, 14 (μM))?
A: 20%

Q: And the “CYP2B6 gene expression deviation from control” value (human hepatocytes; donor one, 1.4 (μM))?
A: 8%

Q: What about the “HO-1 gene expression deviation from control” value (“HO-1 gene expression deviation” for short) (human hepatocytes; donor one, 1.4 (μM)) of the same compound?
A: 54%

Q: And the “PGC-1a gene expression deviation from control” value (human hepatocytes; donor one, 1.4 (μM))?
A: 12%

Q: And the “CYP2B6 gene expression deviation from control” value (human hepatocytes; donor one, 14 (μM))?
A: 3%

Q: And the “HO-1 gene expression deviation” value (human hepatocytes; donor one, 14 (μM))?
A: 50%

Q: And the “PGC-1a gene expression deviation from control” value (human hepatocytes; donor one, 14 (μM))?
A: 42%

Q: And the “CYP2B6 gene expression deviation from control” value (human hepatocytes; donor three, 1.4 (μM))?
A: 29%

Q: And the “HO-1 gene expression deviation” value (human hepatocytes; donor three, 1.4 (μM))?
A: 83%

Q: And the “PGC-1a gene expression deviation from control” value (human hepatocytes; donor three, 1.4 (μM))?
A: 45%

Q: And the “CYP2B6 gene expression deviation from control” value (human hepatocytes; donor three, 14 (μM))?
A: 49%

Q: What about the “HO-1 gene expression deviation” value (human hepatocytes; donor three, 14 (μM)) of the same compound?
A: 21%

Q: And the “PGC-1a gene expression deviation from control” value (human hepatocytes; donor three, 14 (μM))?
A: 1%

Source: patent publication US12083084B2, “Method for enhancing energy production and metabolism in cells” (REPLICON HEALTH OY, priority 2013, dated 2024)
